From patent US20200024278A1, “COMPOSITION COMPRISING ANTIBIOTIC COMPOUND AND AN HETEROCYCLIC COMPOUND AND THEIR USE IN PREVENTING OR TREATING BACTERIAL INFECTIONS” (MUTABILIS, priority 2016, published 2020)

How the values were obtained:
Test in all cases: MIC, broth microdilution (CLSI), substance alone or ATB combined with compound at 4 or 8 μg/mL
ECO 190317 = type: cell-based, E. coli; conditions: ECO 190317
Method in brief: (§1)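 Antibiotic MICs were determined in presence of fixed compound at 4 or 8 μg/mL, and compound MICs alone, by visual growth inhibition. Inoculum 5·10^5 CFU/mL in ca-MHB, incubated 35 °C for 16-20 h per CLSI-M7-A7. Glucose-6-phosphate (25 μg/ml) added when fosfomycin was tested.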

ECO UFR39 = type: cell-based, E. coli; conditions: ECO UFR39; for MIC ATB combined with Example compound: compound @8 μg/ml
Method in brief: as §1

KPN 6299 = type: cell-based, K. pneumoniae; conditions: MIC of CIP, compound @8 μg/ml
Method in brief: as §1

KPN BAA-1898 = type: cell-based, K. pneumoniae; conditions: KPN BAA-1898
Method in brief: as §1

KPN UFR42 = type: cell-based, K. pneumoniae; conditions: KPN UFR42; for MIC ATB combined with Example compound: compound @8 μg/ml
Method in brief: as §1

ECL P99 = type: cell-based, E. cloacae; conditions: ECL P99
Method in brief: as §1

PAE 105250 = type: cell-based, P. aeruginosa; conditions: PAE 105250; for MIC ATB combined with compound / MIC ATB combined with Example compound: compound @8 μg/ml
Method in brief: as §1

PAE UFR48 = type: cell-based, P. aeruginosa; conditions: PAE UFR48; for MIC ATB combined with compound / MIC ATB combined with Example compound: compound @8 μg/ml
Method in brief: as §1

PAE UFR90 = type: cell-based, P. aeruginosa; conditions: PAE UFR90; for MIC ATB combined with compound / MIC ATB combined with Example compound: compound @8 μg/ml
Method in brief: as §1

SAU 29213 = type: cell-based, S. aureus; conditions: for MIC ATB combined with compound / MIC ATB combined with Example compound: compound @8 μg/ml, SAU 29213
Method in brief: as §1

SPN 49619 = type: cell-based, S. pneumoniae; conditions: SPN 49619; for MIC ATB combined with compound / MIC ATB combined with Example compound: compound @8 μg/ml
Method in brief: as §1

ABA UFR152 = type: cell-based, A. baumannii; conditions: Acinetobacter baumannii, substance alone, read-out: MIC
Method in brief: as §1

ABA UFR154 = type: cell-based, A. baumannii; conditions: Acinetobacter baumannii, substance alone, read-out: MIC
Method in brief: as §1

[1] = Escherichia coli, substance alone, read-out: MIC
[2] = Pseudomonas aeruginosa, substance alone, read-out: MIC

NC[C@H]1C=C(c2cnco2)[C@@H]2CN1C(=O)N2OS(=O)(=O)[O-].O=C(O)C(F)(F)F.[Na+] (relative stereo) [Example 1, sodium and 2,2,2-trifluoroacetate [trans-2-(azaniumylmethyl)-4-oxazol-5-yl-7-oxo-1,6-diazabicyclo[3.2.1]oct-3-en-6-yl] sulfate]
0.25 µg/mL: MIC ATB combined with Example compound (SAU 29213; MIC of ERY) | MIC ATB combined with Example compound (SPN 49619; MIC of VAN)
0.125 µg/mL: MIC ATB combined with compound (SAU 29213; ATB MEM) | MIC ATB combined with Example compound (SAU 29213; MIC of CLI) | MIC ATB combined with Example compound (SPN 49619; MIC of DAP)
0.031 µg/mL: MIC (ECO 190317; [1]) | MIC (ECO UFR39; [1]) | MIC (ECL P99; Enterobacter cloacae, substance alone, read-out: MIC)
<0.031 µg/mL: MIC ATB combined with Example compound (ECO 190317; MIC of CIP, compound @8 μg/ml) | MIC ATB combined with Example compound (ECO UFR39; MIC of CIP) | MIC ATB combined with Example compound (ECO UFR39; MIC of CPO) | MIC ATB combined with Example compound (ECL P99; MIC of CIP, compound @8 μg/ml) | MIC ATB combined with compound (PAE 105250; ATB ATM) | MIC ATB combined with compound (PAE 105250; ATB FEP) | MIC ATB combined with compound (PAE 105250; ATB MEM) | MIC ATB combined with compound (PAE 105250; ATB PIP) | MIC ATB combined with Example compound (PAE 105250; MIC of CIP) | MIC ATB combined with Example compound (PAE 105250; MIC of CPO) | MIC ATB combined with compound (PAE UFR48; ATB ATM) | MIC ATB combined with compound (PAE UFR48; ATB FEP) | MIC ATB combined with compound (PAE UFR48; ATB MEM) | MIC ATB combined with compound (PAE UFR48; ATB PIP) | MIC ATB combined with Example compound (PAE UFR48; MIC of CIP) | MIC ATB combined with Example compound (PAE UFR48; MIC of CPO) | MIC ATB combined with compound (PAE UFR90; ATB ATM) | MIC ATB combined with compound (PAE UFR90; ATB FEP) | MIC ATB combined with compound (PAE UFR90; ATB MEM) | MIC ATB combined with compound (PAE UFR90; ATB PIP) | MIC ATB combined with Example compound (PAE UFR90; MIC of CIP) | MIC ATB combined with Example compound (PAE UFR90; MIC of CPO)
16 µg/mL: MIC ATB combined with Example compound (KPN BAA-1898; MIC of CIP, compound @8 μg/ml) | MIC ATB combined with Example compound (KPN UFR42; MIC of CPO)
0.0078 µg/mL: MIC ATB combined with Example compound (SAU 29213; MIC of DAP) | MIC ATB combined with Example compound (SAU 29213; MIC of RIF)
<0.125 µg/mL: MIC ATB combined with compound (PAE UFR90; ATB FOS)
<=0.031 μg/mL: MIC ATB combined with Example compound (SPN 49619; MIC of CPO)
>32 µg/mL: MIC ATB combined with Example compound (KPN UFR42; MIC of CIP) | MIC ATB combined with compound (SAU 29213; ATB ATM) | MIC ATB combined with compound (SPN 49619; ATB ATM)
1 µg/mL: MIC ATB combined with compound (SAU 29213; ATB FOS) | MIC ATB combined with Example compound (SAU 29213; MIC of CPO) | MIC ATB combined with Example compound (SAU 29213; MIC of VAN) | MIC ATB combined with Example compound (SPN 49619; MIC of CIP) | MIC ATB combined with Example compound (SPN 49619; MIC of LZD)
32 µg/mL: MIC ATB combined with Example compound (KPN 6299) | MIC ATB combined with compound (SPN 49619; ATB FOS)
2 µg/mL: MIC ATB combined with compound (PAE UFR48; ATB FOS) | MIC ATB combined with Example compound (SAU 29213; MIC of LZD)
5 µg/mL: MIC ATB combined with compound (SAU 29213; ATB PIP)
4 µg/mL: MIC ATB combined with compound (PAE 105250; ATB FOS) | MIC (PAE UFR48; [2]) | MIC ATB combined with compound (SAU 29213; ATB FEP)
0.063 µg/mL: MIC ATB combined with compound (SPN 49619; ATB FEP) | MIC ATB combined with compound (SPN 49619; ATB MEM) | MIC ATB combined with Example compound (SPN 49619; MIC of CLI) | MIC ATB combined with Example compound (SPN 49619; MIC of ERY) | MIC ATB combined with Example compound (SPN 49619; MIC of RIF)
> 32 µg/mL: MIC (KPN BAA-1898; Klebsiella pneumoniae, BAA1898, substance alone, read-out: MIC) | MIC (KPN UFR42; Klebsiella pneumoniae, substance alone, read-out: MIC) | MIC (PAE 105250; [2]) | MIC (SAU 29213; Staphylococcus aureus, substance alone, SAU 29213 (MSSA 29213), read-out: MIC) | MIC (SPN 49619; Streptococcus pneumoniae, substance alone, read-out: MIC) | MIC (ABA UFR152) | MIC (ABA UFR154)
0.5 µg/mL: MIC (PAE UFR90; [2]) | MIC ATB combined with Example compound (SAU 29213; MIC of CIP) | MIC ATB combined with Example compound (SAU 29213; MIC of SYN) | MIC ATB combined with compound (SPN 49619; ATB PIP) | MIC ATB combined with Example compound (SPN 49619; MIC of SYN)
